Measurements published in patent publication US10584108B2, “Therapeutic compounds and methods of use thereof” (KUALITY HERBCEUTICS LLC, priority 2015, dated 2020).

What was measured:
[1] = test system: NNK-induced O^6-mG in A/J mouse lung tissues; assay: Test A: in vivo effect on NNK-induced O^6-mG in A/J mouse lung tissues; details: A/J mice, compound 0.2 mg/g of diet for seven days, NNK 100 mg/kg i.p., lung tissue four hours after NNK
Text: The ability of a compound of the invention to effect NNK-induced O^6-mG in A/J mouse lung tissues may be determined using pharmacological models which are well known to the art, or using Test A described below.
General Procedure of the In Vivo Effect on NNK-induced O^6-mG in A/J Mouse Lung Tissues
Five-six week old A/J mice were purchased from Jackson Lab. After one week of acclimatization, mice were randomized into different groups. Mice were given to the AIN-G powdered diet supplemented with the corresponding compound at a dose of 0.2 mg/g of diet for seven days. Subsequently, with the exception of mice in the negative control groups, animals were given NNK (100 mg/kg of bodyweight at the beginning of Day 7 via i.p. injection) (control mice will be given saline). Four hours NNK administration, mice in each group were euthanized with serum, urine, lung and liver tissues collected. O^6-mG DNA adducts in the lung tissues were quantified following established procedures (1, 2). The relative amount of reduction was calculated as the percentage of reduction relative the amount of O^6-mG in the NNK-treated positive control group.

[2] = test system: CYP1A1 mRNA in Hepe1c1c7 cells; assay: Test B: in vitro effect on CYP1A1 activation (CYP1A1 mRNA by q-RT PCR); type: cell-based; details: 5 μM in 0.5% DMSO, ratio treated to untreated, normalized to GAPDH mRNA
Description: The ability of a compound of the invention to effect CYP1A1 activation may be determined using pharmacological models which are well known to the art, or using Test B described below.
General Procedures of the In Vitro Effect on CYP1A1 Activation
Hepe1c1c7 cells were cultured under standard conditions and seeded in 6-well plate. After complete attachment (12-24 hours after seeding), the cells were treated with the corresponding compounds at the concentration of 5 μM, supplemented in 0.5% DMSO. Cells were trypsinized and pelleted. mRNAs were isolated. The relative amount of CYP1A1 mRNA were quantified via q-RT PCR and normalized to the amount of GAPDH mRNA from the same sample. Induction of CYP1A1 mRNA is defined as the ratio of CYP1A1 mRNA between treated samples to the untreated sample.

[3] = test system: NNK-induced lung tumorigenesis; details: background statement, literature; cited from earlier work
[4] = test system: NNK-induced DNA damage (O^6-mG); details: background statement, literature; cited from earlier work
[5] = molecular target: T1, aryl hydrocarbon receptors (Homo sapiens, UniProt P35869); details: background statement, literature; cited from earlier work
T1 sequence (P35869 11-848): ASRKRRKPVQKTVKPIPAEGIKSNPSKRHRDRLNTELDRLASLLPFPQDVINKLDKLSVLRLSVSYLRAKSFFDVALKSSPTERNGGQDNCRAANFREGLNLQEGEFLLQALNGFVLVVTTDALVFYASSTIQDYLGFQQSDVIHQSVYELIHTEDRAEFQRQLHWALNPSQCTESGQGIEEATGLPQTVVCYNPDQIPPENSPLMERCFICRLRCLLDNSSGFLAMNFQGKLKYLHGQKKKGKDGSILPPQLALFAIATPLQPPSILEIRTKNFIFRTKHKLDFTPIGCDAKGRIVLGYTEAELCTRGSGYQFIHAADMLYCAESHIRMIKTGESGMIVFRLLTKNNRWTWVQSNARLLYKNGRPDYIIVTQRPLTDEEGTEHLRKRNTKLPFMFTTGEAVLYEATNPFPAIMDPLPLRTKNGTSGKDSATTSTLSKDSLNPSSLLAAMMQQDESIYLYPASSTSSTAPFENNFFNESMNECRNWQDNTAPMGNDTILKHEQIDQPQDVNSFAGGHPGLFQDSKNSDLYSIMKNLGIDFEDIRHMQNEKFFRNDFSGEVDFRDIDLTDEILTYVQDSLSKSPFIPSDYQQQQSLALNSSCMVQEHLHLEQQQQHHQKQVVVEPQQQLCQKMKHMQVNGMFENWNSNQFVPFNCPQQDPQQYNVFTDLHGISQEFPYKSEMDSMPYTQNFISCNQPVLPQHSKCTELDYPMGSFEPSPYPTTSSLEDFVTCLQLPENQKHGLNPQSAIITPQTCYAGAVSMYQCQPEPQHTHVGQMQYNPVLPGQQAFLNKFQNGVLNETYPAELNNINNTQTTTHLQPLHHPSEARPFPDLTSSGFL

| Compound | Induction of CYP1A1 mRNA [2] | Relative amount of reduction in O^6-mG (mean ± SD) % in comparison to NNK-treated control [1] [%] | also measured |
| --- | --- | --- | --- |
| COC1=CC(=O)OC(/C=C/c2ccc3c(c2)OCCO3)C1 (stereo not drawn) [drawing 65] |  | 5.2 ± 13.0 |  |
| COC1=CC(=O)OC(/C=C/c2ccc3c(c2)OCCO3)C1 (stereo not drawn) [drawing 40] | 1.15 ± 0.02 | 5.2 ± 13.0 |  |
| COC1=CC(=O)O[C@@H](CCc2ccc3c(c2)OCO3)C1 [(+)-Dihydromethysticin] |  |  | Block of NNK-induced lung tumorigenesis [3]: effectively block; Inhibition of NNK-induced O^6-mG DNA damage [4]: can be inhibited |
| COC1=CC(=O)OC(/C=C/c2ccc3c(c2)OCO3)C1 (stereo not drawn) | 0.26 ± 0.01 | 54.6 ± 1.2 |  |
| COC1=CC(=O)O[C@@H](CCc2ccc3c(c2)OCO3)C1 [dihydromethysticin] |  |  | Activation of aryl hydrocarbon receptors [5]: activate |
| COC1=CC(=O)O[C@@H](CCc2ccc3c(c2)OCO3)C1 [drawing 26] | 1.88 ± 0.07 | 76.9 ± 2.6 |  |
| COC1=CC(=O)O[C@H](CCc2ccc3c(c2)OCO3)C1 |  | 79.6 ± 1.5 |  |
| COC1=CC(=O)CC(CCc2ccc3c(c2)CCC3)C1 (stereo not drawn) |  | 11.8 ± 23.1 |  |
| COC1=CC(=O)OC(CCc2ccc3c(c2)OCO3)C1 (stereo not drawn) |  | 72.7 ± 6.6 |  |

The next lines start with results.

| Induction of CYP1A1 mRNA [2] | Compound | Relative amount of reduction in O^6-mG (mean ± SD) % in comparison to NNK-treated control [1] [%] | also measured |
| --- | --- | --- | --- |
| 5.61 ± 0.40 | COC1=CC(=O)OC(CCc2ccc(OC)c(O)c2)C1 (stereo not drawn) | −2.6 ± 14.7 |  |
| 1.20 ± 0.1 | O=C1C=C(O)CC(CCc2ccc3c(c2)OCO3)O1 (stereo not drawn) | 55.9 ± 19.7 |  |
| 5.58 ± 0.55 | COC1=CC(=O)CC(CCc2ccc3c(c2)OCO3)C1 (stereo not drawn) | 63.7 ± 21.9 |  |
| 5.94 ± 0.22 | O=C1C=CCC(CCc2ccc3c(c2)OCO3)O1 (stereo not drawn) | 35.2 ± 31.8 |  |
| 2.16 ± 0.11 | COC1=CC(=O)OC(CCc2ccc3c(c2)OCO3)C1C (stereo not drawn) |  |  |
| 2.49 ± 0.08 | COC1=CC(=O)OC(C)(CCc2ccc3c(c2)OCO3)C1 (stereo not drawn) | 56.2 ± 8.1 |  |
| 3.73 ± 0.26 | COC1=CC(=O)OC(CCc2ccc3c(c2)OCCO3)C1 (stereo not drawn) | 3.24 ± 13.4 |  |
| 0.59 ± 0.04 | COC1=C(C)C(=O)OC(CCc2ccc3c(c2)OCO3)C1 (stereo not drawn) | 65.3 ± 5.8 |  |
| 0.79 ± 0.02 | COC1=CC(=O)OC(CCc2ccc3c(c2)CCC3)C1 (stereo not drawn) | 29.7 ± 16.3 |  |
